Source: the NIST ThermoML archive (doi:10.1021/je034177v)

Test: xn = mol fraction of the nth substance listed
Settings: 101 kPa, Liquid; for speed of sound: Pulse-echo method; for mass density: Vibrating tube method

ClCCCCCCl [1,5-dichloropentane] + CCCCCCCCCCCC
Settings	mass density [kg/m3]	speed of sound [m/s]
278.15 K, x1 = 0.05237	769.83	1353.9
278.15 K, x1 = 0.1014	780	1351.3
278.15 K, x1 = 0.2008	802.34	1347.1
278.15 K, x1 = 0.3039	827.99	1344.1
278.15 K, x1 = 0.3945	852.98	1342.4
278.15 K, x1 = 0.4983	884.91	1342.1
278.15 K, x1 = 0.6014	920.97	1343.6
278.15 K, x1 = 0.6987	959.17	1347.1
278.15 K, x1 = 0.7975	1003.24	1353.4
278.15 K, x1 = 0.9021	1056.96	1363.5
278.15 K, x1 = 0.9497	1084.25	1369.5
278.15 K, x1 = 1	1115.28	1376.6
283.15 K, x1 = 0.05237	766.19	1334.4
283.15 K, x1 = 0.1014	776.32	1331.9
283.15 K, x1 = 0.2008	798.55	1327.8
283.15 K, x1 = 0.3039	824.08	1324.9
283.15 K, x1 = 0.3945	848.97	1323.6
283.15 K, x1 = 0.4983	880.76	1323.4
283.15 K, x1 = 0.6014	916.68	1325.1
283.15 K, x1 = 0.6987	954.72	1328.9
283.15 K, x1 = 0.7975	998.63	1335.3
283.15 K, x1 = 0.9021	1052.15	1345.6
283.15 K, x1 = 0.9497	1079.35	1351.7
283.15 K, x1 = 1	1110.26	1358.9
288.15 K, x1 = 0.05237	762.54	1314.6
288.15 K, x1 = 0.1014	772.61	1312.2
288.15 K, x1 = 0.2008	794.74	1308.2
288.15 K, x1 = 0.3039	820.16	1305.7
288.15 K, x1 = 0.3945	844.93	1304.4
288.15 K, x1 = 0.4983	876.58	1304.5
288.15 K, x1 = 0.6014	912.36	1306.4
288.15 K, x1 = 0.6987	950.25	1310.3
288.15 K, x1 = 0.7975	993.99	1317
288.15 K, x1 = 0.9021	1047.3	1327.5
288.15 K, x1 = 0.9497	1074.4	1333.7
288.15 K, x1 = 1	1105.2	1341
293.15 K, x1 = 0.05237	758.89	1295.1
293.15 K, x1 = 0.1014	768.91	1292.8
293.15 K, x1 = 0.2008	790.94	1289
293.15 K, x1 = 0.3039	816.25	1286.6
293.15 K, x1 = 0.3945	840.9	1285.5
293.15 K, x1 = 0.4983	872.42	1285.7
293.15 K, x1 = 0.6014	908.04	1287.9
293.15 K, x1 = 0.6987	945.78	1292
293.15 K, x1 = 0.7975	989.35	1298.8
293.15 K, x1 = 0.9021	1042.45	1309.5
293.15 K, x1 = 0.9497	1069.46	1315.8
293.15 K, x1 = 1	1100.16	1323.2
298.15 K, x1 = 0.05237	755.23	1275.6
298.15 K, x1 = 0.1014	765.22	1273.5
298.15 K, x1 = 0.2008	787.14	1269.8
298.15 K, x1 = 0.3039	812.33	1267.5
298.15 K, x1 = 0.3945	836.86	1266.6
298.15 K, x1 = 0.4983	868.24	1267
298.15 K, x1 = 0.6014	903.71	1269.3
298.15 K, x1 = 0.6987	941.31	1273.7
298.15 K, x1 = 0.7975	984.72	1280.7
298.15 K, x1 = 0.9021	1037.61	1291.6
298.15 K, x1 = 0.9497	1064.51	1298
298.15 K, x1 = 1	1095.11	1305.4
303.15 K, x1 = 0.05237	751.58	1256.4
303.15 K, x1 = 0.1014	761.51	1254.2
303.15 K, x1 = 0.2008	783.32	1250.7
303.15 K, x1 = 0.3039	808.4	1248.6
303.15 K, x1 = 0.3945	832.82	1247.8
303.15 K, x1 = 0.4983	864.07	1248.4
303.15 K, x1 = 0.6014	899.38	1250.9
303.15 K, x1 = 0.6987	936.82	1255.4
303.15 K, x1 = 0.7975	980.06	1262.6
303.15 K, x1 = 0.9021	1032.76	1273.8
303.15 K, x1 = 0.9497	1059.56	1280.3
303.15 K, x1 = 1	1090.07	1287.9
308.15 K, x1 = 0.05237	747.91	1237.3
308.15 K, x1 = 0.1014	757.8	1235.2
308.15 K, x1 = 0.2008	779.49	1231.8
308.15 K, x1 = 0.3039	804.47	1229.8
308.15 K, x1 = 0.3945	828.76	1229.2
308.15 K, x1 = 0.4983	859.88	1230
308.15 K, x1 = 0.6014	895.05	1232.7
308.15 K, x1 = 0.6987	932.33	1237.4
308.15 K, x1 = 0.7975	975.41	1244.8
308.15 K, x1 = 0.9021	1027.91	1256.1
308.15 K, x1 = 0.9497	1054.61	1262.7
308.15 K, x1 = 1	1085.02	1270.3
313.15 K, x1 = 0.05237	744.24	1218.4
313.15 K, x1 = 0.1014	754.07	1216.4
313.15 K, x1 = 0.2008	775.66	1213.2
313.15 K, x1 = 0.3039	800.53	1211.4
313.15 K, x1 = 0.3945	824.71	1210.9
313.15 K, x1 = 0.4983	855.7	1211.8
313.15 K, x1 = 0.6014	890.7	1214.6
313.15 K, x1 = 0.6987	927.83	1219.6
313.15 K, x1 = 0.7975	970.74	1227
313.15 K, x1 = 0.9021	1023.05	1238.5
313.15 K, x1 = 0.9497	1049.66	1245.2
313.15 K, x1 = 1	1079.97	1253
318.15 K, x1 = 0.05237	740.56	1199.7
318.15 K, x1 = 0.1014	750.34	1197.7
318.15 K, x1 = 0.2008	771.82	1194.6
318.15 K, x1 = 0.3039	796.59	1192.9
318.15 K, x1 = 0.3945	820.64	1192.5
318.15 K, x1 = 0.4983	851.51	1193.6
318.15 K, x1 = 0.6014	886.36	1196.7
318.15 K, x1 = 0.6987	923.36	1201.7
318.15 K, x1 = 0.7975	966.1	1209.5
318.15 K, x1 = 0.9021	1018.21	1221.1
318.15 K, x1 = 0.9497	1044.74	1227.9
318.15 K, x1 = 1	1074.95	1235.8
323.15 K, x1 = 0.05237	736.88	1181
323.15 K, x1 = 0.1014	746.61	1179.3
323.15 K, x1 = 0.2008	767.98	1176.2
323.15 K, x1 = 0.3039	792.63	1174.7
323.15 K, x1 = 0.3945	816.57	1174.4
323.15 K, x1 = 0.4983	847.29	1175.6
323.15 K, x1 = 0.6014	882	1178.8
323.15 K, x1 = 0.6987	918.84	1184.1
323.15 K, x1 = 0.7975	961.42	1191.9
323.15 K, x1 = 0.9021	1013.35	1203.8
323.15 K, x1 = 0.9497	1039.77	1210.6
323.15 K, x1 = 1	1069.89	1218.7
328.15 K, x1 = 0.05237	733.17	1162.7
328.15 K, x1 = 0.1014	742.86	1160.8
328.15 K, x1 = 0.2008	764.14	1157.9
328.15 K, x1 = 0.3039	788.68	1156.5
328.15 K, x1 = 0.3945	812.52	1156.4
328.15 K, x1 = 0.4983	843.12	1157.7
328.15 K, x1 = 0.6014	877.69	1161.2
328.15 K, x1 = 0.6987	914.4	1166.5
328.15 K, x1 = 0.7975	956.8	1174.5
328.15 K, x1 = 0.9021	1008.57	1186.6
328.15 K, x1 = 0.9497	1034.9	1193.5
328.15 K, x1 = 1	1064.93	1201.6
